This series deals with CCRIS mutagenicity, Ames/micronucleus/aberration tests. Description: CCRIS mutagenicity studies.
Where [1] appears, read: Test System: AMES SALMONELLA TYPHIMURIUM, Strain/Indicator: TA100, Metabolic Activation: NONE, Method: STANDARD PLATE.

Active and inactive are the calls of the source. The rule behind the calls is not given here.

Here are results for three compounds from PubChem BioAssay AID1259407 (Chemical Carcinogenesis Research Information System (CCRIS), 2018).

On to `Cc1ccc2c(c1)C(=O)c1ccccc1C2=O`, for which the mutagenic call was “inactive; negative” (Test System: AMES SALMONELLA TYPHIMURIUM, Strain/Indicator: TA97, Metabolic Activation: NONE, Method: STANDARD PLATE); “inactive; negative” (Test System: AMES SALMONELLA TYPHIMURIUM, Strain/Indicator: TA97, Metabolic Activation: RAT, LIVER, S-9, PCB, Method: STANDARD PLATE); “inactive; negative” (Test System: AMES SALMONELLA TYPHIMURIUM, Strain/Indicator: TA98, Metabolic Activation: NONE, Method: PREINCUBATION); “inactive; negative” (Test System: AMES SALMONELLA TYPHIMURIUM, Strain/Indicator: TA98, Metabolic Activation: NONE, Method: STANDARD PLATE); “inactive; negative” (Test System: AMES SALMONELLA TYPHIMURIUM, Strain/Indicator: TA98, Metabolic Activation: RAT, LIVER, S-9, PCB, Method: PREINCUBATION); “inactive; negative” (Test System: AMES SALMONELLA TYPHIMURIUM, Strain/Indicator: TA98, Metabolic Activation: RAT, LIVER, S-9, PCB, Method: STANDARD PLATE). Also, the mutagenic call runs as follows: (Test System: AMES SALMONELLA TYPHIMURIUM, Strain/Indicator: TA100, Metabolic Activation: NONE, Method: PREINCUBATION) “inactive; negative”; under setting [1], “inactive; negative”; (Test System: AMES SALMONELLA TYPHIMURIUM, Strain/Indicator: TA100, Metabolic Activation: RAT, LIVER, S-9, PCB, Method: PREINCUBATION) “inactive; negative”; (Test System: AMES SALMONELLA TYPHIMURIUM, Strain/Indicator: TA100, Metabolic Activation: RAT, LIVER, S-9, PCB, Method: STANDARD PLATE) “inactive; negative”.
Take `CC(C)N(CC(O)COc1ccc(CC(N)=O)cc1)N=O` (centres undefined): the mutagenic call is, setting by setting: (Test System: UDS HUMAN HEPATOCYTES, Strain/Indicator: THY INCORP, Metabolic Activation: NONE, Method: AUTORADIOGRAPHY) “active; positive”; (Test System: UDS RAT HEPATOCYTES, Strain/Indicator: THY INCORP, Metabolic Activation: NONE, Method: AUTORADIOGRAPHY) “active; positive”.
`CNC(=O)ON(C(C)=O)C(=O)NC`: the mutagenic call (Test System: AMES SALMONELLA TYPHIMURIUM, Strain/Indicator: TA98, Metabolic Activation: RAT, LIVER, S-9, Method: STANDARD PLATE) is “active; positive” and the mutagenic call under setting [1] is “inactive; negative”.
